Measurements as given in ChEMBL document CHEMBL1128960, “Phosphonic acid and phosphinic acid tripeptides as inhibitors of glutathionylspermidine synthetase” (Bioorg Med Chem Lett, 1996).

Target: T1, Glutathionylspermidine synthase (Crithidia fasciculata) (UniProt P90518)
T1 sequence (whole entry): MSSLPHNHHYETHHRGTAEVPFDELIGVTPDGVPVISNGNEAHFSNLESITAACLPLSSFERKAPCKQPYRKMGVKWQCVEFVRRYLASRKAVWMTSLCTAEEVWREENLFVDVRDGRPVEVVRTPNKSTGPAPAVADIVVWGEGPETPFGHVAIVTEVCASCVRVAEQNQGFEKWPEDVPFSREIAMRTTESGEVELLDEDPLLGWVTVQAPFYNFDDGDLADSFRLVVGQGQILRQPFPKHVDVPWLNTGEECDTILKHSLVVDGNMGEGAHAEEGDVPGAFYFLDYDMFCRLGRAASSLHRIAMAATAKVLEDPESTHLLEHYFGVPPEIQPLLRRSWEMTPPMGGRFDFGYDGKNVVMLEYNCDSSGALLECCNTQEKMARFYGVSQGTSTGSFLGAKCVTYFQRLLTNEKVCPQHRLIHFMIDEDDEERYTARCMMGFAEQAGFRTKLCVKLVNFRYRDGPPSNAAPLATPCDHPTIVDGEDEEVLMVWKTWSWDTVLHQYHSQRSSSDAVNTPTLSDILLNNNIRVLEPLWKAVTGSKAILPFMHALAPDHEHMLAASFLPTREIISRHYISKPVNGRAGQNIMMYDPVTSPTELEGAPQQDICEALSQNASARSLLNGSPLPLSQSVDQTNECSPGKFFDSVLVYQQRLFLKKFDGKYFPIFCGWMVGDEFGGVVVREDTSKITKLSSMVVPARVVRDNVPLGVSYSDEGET
Test: Compound was tested for inhibitory activity against glutathionylspermidine synthetase in the presence of 5 mM glutathione and spermidine.

Compound	inhibition [%]
CC(C)[C@H](NC(=O)[C@@H](N)CCC(=O)O)C(=O)NCP(C)(=O)O	26
CC(C)C[C@H](NC(=O)[C@@H](N)CCC(=O)O)C(=O)NCC(=O)CP(=O)(O)O	62
CC(C)C[C@H](NC(=O)[C@@H](N)CCC(=O)O)C(=O)NCP(=O)(Oc1ccccc1)Oc1ccccc1	76
CC(C)[C@H](NC(=O)[C@@H](N)CCC(=O)O)C(=O)NCP(=O)(O)CCC(N)=O	11
CC(C)[C@H](NC(=O)[C@@H](N)CCC(=O)O)C(=O)NC(C)P(C)(=O)O (some centres undefined)	14
CC(C)[C@H](NC(=O)[C@@H](N)CCC(=O)O)C(=O)NCP(=O)(O)O	78
CC(C)C[C@H](NC(=O)[C@@H](N)CCC(=O)O)C(=O)NCP(=O)(O)O	86
CC(C)C[C@H](NC(=O)[C@@H](N)CCC(=O)O)C(=O)NCCCP(=O)(O)O	24
CC(C)[C@H](NC(=O)[C@@H](N)CCC(=O)O)C(=O)NC[PH](=O)O	50
COC(=O)CCP(=O)(O)CNC(=O)[C@@H](NC(=O)[C@@H](N)CCC(=O)O)C(C)C	71
CC(C)[C@H](NC(=O)[C@@H](N)CCC(=O)O)C(=O)NCC(N)CP(=O)(O)O (some centres undefined)	10

Target: T1, Glutathionylspermidine synthase (Crithidia fasciculata)
Test: Compound was tested for inhibitory activity against glutathionylspermidine synthetase in the presence of 5 mM glutathione and spermidine; Not inhibition

Compound	inhibition
CC(C)[C@H](NC(=O)[C@@H](N)CCC(=O)O)C(=O)NCC(=O)CP(=O)(O)O	No inhibition
CC(C)[C@H](NC(=O)[C@@H](N)CCC(=O)O)C(=O)NCCCP(=O)(O)O	No inhibition
CC(C)[C@H](NC(=O)[C@@H](N)CCC(=O)O)C(=O)NCCP(=O)(O)O	No inhibition
CC(C)[C@H](NC(=O)[C@@H](N)CCC(=O)O)C(=O)NCC(O)CP(=O)(O)O (some centres undefined)	No inhibition
CC(C)C[C@H](NC(=O)[C@@H](N)CCC(=O)O)C(=O)Nc1ccc(CP(=O)(O)O)cc1	No inhibition

Target: T2, Glutathionylspermidine synthase (Crithidia fasciculata, UniProt P90518)
T2 sequence (P90518 whole entry): T1 sequence (whole entry)
Test: Compound was tested for linear non-competitive inhibitory activity against glutathionylspermidine synthetase.

Compound	Ki [µM]
CC(C)[C@H](NC(=O)[C@@H](N)CCC(=O)O)C(=O)NCP(=O)(O)O	290
CC(C)C[C@H](NC(=O)[C@@H](N)CCC(=O)O)C(=O)NCP(=O)(O)O	60

Target: T1, Glutathionylspermidine synthase (Crithidia fasciculata)
Test: Compound was tested for inhibitory activity against glutathionyl spermidine synthetase in the presence of 5 mM glutathione and spermidine.

Compound	inhibition [%]
COC(=O)CCP(=O)(O)C(C)NC(=O)[C@@H](NC(=O)[C@@H](N)CCC(=O)O)C(C)C (some centres undefined)	15
